Source: PubChem BioAssay (NCI)
Values joined by “and” are separate entries in the source; they are usually repeats but may differ in a detail not shown here. Equal values may be shown once.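 Compound exposure: 48 hours, 5 concentrations, 96-well plates. At the GI50, growth is halved. TGI denotes the concentration required for complete inhibition of growth.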

Key:
Assay in all cases: inhibition of tumour cell growth, NCI panel, 48 h
LXFL 529 NSCLC = tested on: LXFL 529 NSCLC
NCI-H522 lung = tested on: NCI-H522 lung
HCT-116 colon = tested on: HCT-116 colon
SN12C renal = tested on: SN12C renal
HCC-2998 colon = tested on: HCC-2998 colon
DLD-1 colon = tested on: DLD-1 colon
SW-620 colon = tested on: SW-620 colon
SNB-19 CNS = tested on: SNB-19 CNS
SF-268 CNS = tested on: SF-268 CNS
BT-549 breast = tested on: BT-549 breast

Row | SMILES | TGI (LXFL 529 NSCLC) | TGI (NCI-H522 lung) | TGI (HCT-116 colon) [µM] | TGI (SN12C renal) | TGI (HCC-2998 colon) | TGI (DLD-1 colon) [µM] | TGI (SW-620 colon) [µM] | TGI (SNB-19 CNS) [µM] | TGI (SF-268 CNS) [µM] | GI50 (LXFL 529 NSCLC) [µM] | GI50 (NCI-H522 lung) [µM] | GI50 (HCT-116 colon) [µM] | GI50 (SN12C renal) [µM] | GI50 (SW-620 colon) [µM] | GI50 (SNB-19 CNS) [µM] | TGI (BT-549 breast) | GI50 (SF-268 CNS) [µM] | GI50 (HCC-2998 colon) [µM] | GI50 (DLD-1 colon) [µM] | GI50 (BT-549 breast) [µM]
1 | CCN1CC2(C)CC[C@@H](OC)C34[C@@H]2[C@H](OC(C)=O)C2(OCO[C@@]25C[C@H](OC)C2C[C@]3(O)[C@@H]5[C@H]2O)[C@H]14 | > 100 µM | > 100 µM | > 100 | > 100 µM | > 100 µM | > 100 | > 100 | > 100 | > 100 |  |  |  |  |  |  |  |  |  |  | 
2 | COc1cc(C2c3cc4c(cc3[C@@H](Nc3cccc(O)c3)C3COC(=O)[C@H]23)OCO4)cc(OC)c1O (stereo partly specified) | 24.9 µM | 5.51 µM | 23.3 | 6.82 µM | 8.81 µM | 40.9 | 41 | 24.9 | 14.1 | 0.85 | 0.571 | 0.804 | 0.688 | 0.77 | 0.949 | 6.7 µM | 0.942 |  |  | 
3 | C/C(=N\NC(=S)N1CCC(C2CCN(C(=S)N/N=C(\C)c3ccccn3)CC2)CC1)c1ccccn1 | > 100 µM | > 100 µM | > 100 | > 100 µM | > 100 µM | > 100 | > 100 | > 100 | > 100 |  |  |  |  |  |  |  |  |  |  | 
4 | CC[C@@]1(OC(=O)CN(C)C)C(=O)OCc2c1cc1n(c2=O)Cc2cc3ccccc3nc2-1 | 5.02 µM and 3.35 µM | 3.45 µM and 1.68 µM |  | 4.03 µM and 0.892 µM | 1.32 µM and 1.76 µM | 30.4 |  |  |  | 0.577 | 0.0396 | 0.0391 |  | 0.16 |  | 4.09 µM and 8.64 µM | 0.0464 | 0.322 | 0.806 | 0.116
5 | Cc1ns/c(=N\C(=S)N(C)C)n1C | > 100 µM | > 100 µM | > 100 | > 100 µM | > 100 µM | > 100 | > 100 | > 100 | > 100 |  |  |  |  |  |  |  |  |  |  | 
6 | CCCCCCCCCCCCCCCC(=O)OCC1OC(n2ccc(N)nc2=O)C(O)C1O (stereo unspecified) | > 100 µM | > 100 µM | > 100 | > 100 µM | > 100 µM | > 100 | > 100 | > 100 | > 100 |  |  |  |  |  |  | > 100 µM |  |  |  | 
7 | Cc1[nH]c(=O)nc(N/N=C/c2ccc(O)cc2)c1C(=O)Nc1ccc(Cl)cc1 | > 100 µM | > 100 µM | > 100 | > 100 µM | > 100 µM | > 100 | > 100 | > 100 | > 100 |  |  |  |  |  |  |  |  |  |  | 
8 | COc1ccccc1NC(=O)C(=O)C1C(=O)Nc2ccccc2S1=O (stereo unspecified) | > 100 µM | > 100 µM | > 100 | > 100 µM | > 100 µM | > 100 | > 100 | > 100 | > 100 |  |  |  |  |  |  |  |  |  |  | 
9 | COC(=O)C1CCC(=NC2c3ccccc3-c3ccccc32)N1 (stereo unspecified) | > 100 µM | 58.6 µM | > 100 | > 100 µM | > 100 µM | > 100 | > 100 | > 100 | > 100 |  |  |  |  |  |  |  |  |  |  | 
10 | CC[C@@]1(O)C(=O)OCc2c1cc1n(c2=O)Cc2cc3c(NC(C)=O)c(O)ccc3nc2-1 | > 100 µM | 14.5 µM | 24.6 | > 20.8 µM | 47.1 µM | > 100 | > 100 | > 56.6 | > 52.3 | 12.5 | 0.565 | 2.41 | 0.456 | 1.94 | 0.917 |  | 0.417 | 8.21 | 43.3 | 
11 | CCC1NCC(=O)c2c1[nH]c1ccccc21 (stereo unspecified) | > 100 µM | > 100 µM | > 100 | > 100 µM | > 100 µM | > 100 | > 100 | > 100 | > 100 |  |  |  |  |  |  |  |  |  |  | 
12 | CCCCCCCCC(=O)NCCCNCCCNC(=O)CCCCCCCC | 7.79 µM | 18.8 µM | 9.54 | 16.3 µM | 6.67 µM | 7.7 | 7.3 | 35.9 | 26 |  |  |  |  |  |  |  |  |  |  | 
